# In patent publication US20220395500A1, “SMALL MOLECULE ACTIVATORS OF INTERFERON REGULATORY FACTOR 3 AND METHODS OF USE THEREOF” (Neuralexo, Inc., priority 2020, published 2022):
# Like-named read-outs stand apart in the source and are kept apart here.
# Assays:
# [1] = system: IRF-Lucia luciferase reporter (ISRE) in THP1-Dual cells; assay: THP1-Dual IRF-Lucia luciferase reporter assay (ISRE activation); assay type: cell-based, human; settings: for EC50: Homo sapiens, THP1-Dual, read-out: THP1 IRF EC50
# In short: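 THP1-Dual cells were differentiated with 5 ng/mL PMA for 48 h at 37° C, washed, then treated with compounds at 10 μM final for 24 h; LPS at 313 ng/mL served as control. ISRE-driven Lucia luciferase in supernatant was read by luminescence.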
# [2] = system: NF-κB-SEAP reporter in J774-Dual cells; assay: J774-Dual NF-κB-SEAP reporter assay; assay type: cell-based, mouse; settings: for EC50: Mus musculus, read-out: J774 NFkB EC50
# Experimental: (§1) First, optimal assay conditions and assay quality in 384-well format were determined. As mentioned, the mouse macrophage J774 cell line (J774-Dual, InvivoGen) stably transfected with the same inducible reporters described above (e.g., IRF-Lucia luciferase and NF-κB-SEAP) was used. The responsiveness of the J774-Dual cell line was investigated in an array of assay conditions to obtain sensitive and reproducible results for the activation of the IRF and NF-κB reporters. An optimal plating density and conditions for these cells was established for these cells in a 384-well format. Assay work-flow is similar to that discussed above for the THP1-Dual assay without a need for cell differentiation. Thus, cells are seeded directly in growth medium and incubated at 37° C. in a 5% C02 incubator for 24 hours prior to the programmed treatments being added as described herein.
# (§2) The primary high throughput screen used the HTS platform of human THP1 monocyte cells containing the IRF-Lucia luciferase and NFκB-SEAP (secreted embryonic alkaline phosphatase) dual reporter (THP1-Dual, Invivogen), enabling the simultaneous study of the IRF and NFκB signaling pathways respectively. As discussed, the Lucia luciferase reporter gene is under the control of an ISG54 (interferon-stimulated gene) minimal promoter in conjunction with five interferon-stimulated response elements (ISRE). The SEAP gene is driven by an IFNβ minimal promoter fused to five copies of the NFκB consensus transcriptional response element and three copies of the c-Rel binding site. Both IRF-Lucia luciferase and NFκB-SEAP reporter proteins are secreted and readily measurable in the cell culture supernatant when using QUANTI-Luc™ and QUANTI-Blue™ detection reagents, respectively. Identified “hits” were confirmed in a secondary screen with an 8-point dose response curve. Hits were further screened for activity in the mouse using the mouse J774 macrophage-like cell line containing the identical reporter constructs (J774-Dual, Invivogen).
# (§3) The OTRADI Small Molecule Library of approximately 246,000 diverse compounds (see below for description) was screened using the THP1-Dual based HTS platform described above. All transfer steps in the screen are fully automated, thus reducing variability. Primary screening included a single data point or dose for each molecule. After data normalization was applied for each assay run, “hit” selection was performed on the plates that pass the quality control (QC) criterion. Hits were defined as samples having values above the activity cutoff determined based on noise level of the assay to reduce false positive rates. In the pilot study discussed above this activity value was >3σ above the ISRE mean with the added criteria of NFκB activation being lower than […] from the mean to identify IRF selective compounds. The ratio of ISRE:NFκB activity was also calculated as a selectivity index for prioritizing hit selection. Primary hits underwent secondary screening to determine the 50% effective concentration (EC50) and 50% cytotoxic concentration (CC50) of these agents using an 8-point dose-response curve in the human THP1-Dual cells. Cytotoxicity was measured in the plate using Cell Titer Glo (Promega). Identified candidate compounds were further screened (orthogonal screen) for cross species activity in the validated mouse J774-Dual assay using an 8-point dose-response format to determine EC50 and CC50 values as well as ISRE:NFκB ratios. A general process flow for the experimental design laid out above is depicted at FIG. 12.
# [3] = THP1-Dual cytotoxicity (Cell Titer Glo, ATP); assay type: cell-based, human; settings: human, THP1-Dual cells, read-out: Thp1 cytotox CC50
# In short: (§4)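 Human THP1-Dual cells were treated across an 8-point dose-response range. Cytotoxicity was measured in-plate by CellTiter-Glo luminescence, which quantifies ATP as a marker of metabolically active cells, and CC50 was taken as the 50% cytotoxic concentration.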
# [4] = J774-Dual cytotoxicity; assay type: cell-based, mouse; settings: mouse, J774-Dual cells, read-out: J774 cytotox CC50
# In short: (§5)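 Orthogonal cross-species screen in mouse J774-Dual cells using 8-point dose-response format. Cytotoxicity measured in-plate by CellTiter-Glo luminescence, giving CC50 alongside EC50 and ISRE:NFκB ratios.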
# [5] = system: NF-κB-SEAP reporter in THP1-Dual cells; assay: THP1-Dual NF-κB-SEAP reporter counterscreen; assay type: cell-based, human; settings: Homo sapiens, THP1-Dual, read-out: THP1 NFkB EC50
# Experimental: THP1 Dual (InvivoGen) cell suspensions were cultured in RPMI 1640 (Hyclone, Logan, Utah) supplemented with 10% fetal bovine serum (Hyclone), 100 U/mL Normocin (Invivogen), and 50 U/mL PenStrep (Gibco, Dublin, Ireland) between a density of 7·10^5-2·10^6 cells/mL. Every other passage, media was supplemented with 5 U/mL Blasticidin and 100 U/mL Zeocin to maintain the expression constructs. White, flat-bottom 384-well plates (Greiner, Kremsmunster, Austria, 781080) were seeded with 2.5·10^4 cells/well in a total of 50 μL media containing 5 ng/mL phorbolmyristic acid (PMA) using a Matrix WellMate (Thermo Scientific) dispenser. After 48 hours of incubation at 37° C., media was removed using a BioTek ELx405 CW plate washer set to aspirate and wash each well three times with 65 μL 1×PBS. Plates were reloaded with 50 μL media without PMA and treatments added. Lipopolysaccharide in dimethylsulfoxide (DMSO) was transferred to control wells using a HP D300 microdispenser to a final concentration of 313 ng/mL. Compounds from chemical library plates were copied using a Sciclone (Caliper LifeSciences) mounted with a 384-pin transfer tool to obtain a final concentration of 10 μM. After incubation with treatments for 24 hours, 10 μL of supernatant media from each well was transferred into a white, flat-bottom 384-well plate for luminescence readout and a black-walled, clear flat-bottom 384-well plate for absorbance readout.
# Specifically, to enable screening of novel chemical entities (NCEs) in a larger screening effort, a robust high-throughput cell-based assay system for primary hit identification of ISRE activators based on the above-mentioned target validation was desired. Human ISRE activity was verified using a THP-1 monocyte line containing the NF-κB-SEAP and IRF-Lucia luciferase dual reporter (THP1-Dual; Invivogen) that features two reporter genes, SEAP (secreted embryonic alkaline phosphatase) and Lucia luciferase, thereby enabling the simultaneous study of the NF-κB and IRF signalling pathways. The Lucia luciferase reporter is under the control of an ISG54 (interferon-stimulated gene) minimal promoter in conjunction with five IFN-stimulated response elements. The SEAP gene is driven by an IFN-β minimal promoter fused to five copies of the NF-κB consensus transcriptional response element and three copies of the c-Rel binding site. Both reporter proteins are readily measurable in the cell culture supernatant when using QUANTI-LUC™ and QUANTI-Blue SEAP detection reagents.
# Using the experimental design and data analysis outlined above, optimized assay conditions were obtained. The responsiveness of the human THP-1 Dual cell line was evaluated in an array of assay conditions to obtain sensitive and reproducible results for the activation of IRF and NF-κB reporters. An optimal plating density and differentiation protocol for these cells was established in a 384-well format. All transfer steps are fully automated using high throughput robotic equipment. Briefly, cells are seeded in differentiation medium using a Matrix WellMate fitted with the WellMate Stacker (Thermo Scientific) and incubated at 37° C. with 5% CO2 for 48 h. Following differentiation, cells are washed using a BioTek ELx405 Select CW plate washer and growth medium added with the Matrix WellMate. Programmed control treatments are added to wells using a D300 digital dispenser fitted with T8+ dispense heads (Hewlett Packard) designed to dispense nanoliter quantities of material. Compounds from library plates are added using a pin tool fitted to a Sciclone ALH 3000 Workstation (Caliper Life Sciences) programmed with Maestro v4.4. After treatment, plates are returned to incubators for 24 hours. To measure reporter expression, supernatant is collected using the Sciclone and dispensed into 2 plates: 1) a white 384-well assay plate for Lucia luminescence measurements and 2) a clear-bottom black 384-well assay plate for SEAP absorbance measurements. […]
# [6] = system: IRF-Lucia luciferase reporter (ISRE) in J774-Dual cells; assay: J774-Dual IRF-Lucia luciferase reporter assay (ISRE activation); assay type: cell-based, mouse; settings: for EC50: Mus musculus, read-out: J774 IRF EC50
# Experimental: as §1, §2, §3
# [7] = system: THP1-Dual cells; assay: THP1-Dual cytotoxicity (Cell Titer Glo, ATP); assay type: cell-based, human; settings: Human Reporter Cell Line; read-out: Thp1 cytotox CC50
# In short: as §4
# [8] = system: J774-Dual cells; assay: J774-Dual cytotoxicity; assay type: cell-based, mouse; settings: Mouse Reporter Cell Line; read-out: J774 cytotox CC50
# In short: as §5
# [9] = J774, Mouse Reporter Cell Line J774
# [10] = J774, Mouse Reporter Cell Line, 8-point dose response
# [11] = Human Reporter Cell Line, 8-point dose response
compound,measurement,setting,value
COc1ccc(NC(=O)c2cc(NC(=O)c3cccs3)ccc2N2CCOCC2)cc1 [NB-14],EC50,[1]; Human Reporter Cell Line THP1,6.9 µM
same,EC50,[2]; [9],11.3 µM
same,CC50,[3]; Human Reporter Cell Line THP1,> 25 µM
same,CC50,[4]; Mouse Reporter Cell Line J774,> 25 µM
CCCCOc1nc(N)c2c(n1)N(Cc1cccc(CN3CCCC3)c1)CC(=O)N2 [NA-63],EC50,[2]; [10],2.77 µM
same,EC50,[5]; [11],2.94 µM
same,CC50,[4]; Mouse Reporter Cell Line,73.9 µM
COc1ccc(C(=O)Nc2cc(-c3nc4ccccc4s3)ccc2C)cc1OC [ND-66],CC50,[3]; Human Reporter Cell Line THP1,17.9 µM
same,EC50,[5]; Human Reporter Cell Line THP1,~0.66 µM
same,CC50,[4]; Mouse Reporter Cell Line J774,> 25 µM
same,J774 IRF % activation at peak,"[6]; Mouse Reporter Cell Line J774, at peak",~32.86%
same,EC50,[6]; [9],~28.6 µM
"COc1cccc2c1C(=O)c1c(O)c3c(c(O)c1C2=O)C[C@@](O)(C(C)=O)C[C@@H]3O[C@H]1C[C@H](N)[C@H](O)[C@H](C)O1 [OTR-0000353-001 (Daunorubicin), Daunorubicin, reference compound]",Average ISRE/NFκB (Range),"[1]; human THP1 pilot screen, 10 μM, 3 screens",0.7 (0.2-1.0)
same,Average ISRE % Activation,"[1]; human THP1 pilot screen, 10 μM, 24 hours, percent of LPS activation signal +/− SD, 3 screens",4.0 +/− 1.8%
same,NF-κB activation in J774 screen,[2]; J774-Dual pilot screen,high NF-κB activity
same,Average ISRE/NFκB (Range),"[6]; mouse J774-Dual pilot screen, 3 screens",0.1 (0.09-0.18)
same,Average ISRE % Activation,"[6]; mouse J774-Dual pilot screen, percent of LPS activation signal +/− SD, 3 screens",5.4 +/− 1.6%
same,ISRE activation in both THP1-Dual and J774-Dual screens,[6]; pilot screens,cross-species ISRE activity
CCCN(CCC)C(=O)C1=Cc2ccc(-c3ccc(C(=O)N4CCCC4)cc3)cc2N=C(N)C1 [ND-88],EC50,[2]; [9],0.72 µM
same,CC50,[3]; Human Reporter Cell Line THP1,> 25 µM
same,EC50,[5]; Human Reporter Cell Line THP1,1.72 µM
same,CC50,[4]; Mouse Reporter Cell Line J774,> 25 µM
O=C(Nc1ccc(N2CCN(C(=O)c3cccs3)CC2)cc1)c1ccc(OCc2ccccc2)cn1 [NA-60],EC50,[1]; [11],2.23 µM
same,CC50,[3]; Human Reporter Cell Line,23 µM
same,EC50,[5]; [11],2.27 µM
same,J774 IRF % activation at peak,[6]; Mouse Reporter Cell Line,33.91%
same,EC50,[6]; [10],1.77 µM
O=C(Nc1ccc(N2CCN(C(=O)c3ccccc3Cl)CC2)cc1)c1ccc(OCc2ccccc2)cc1 [NA-49],CC50,[7],27.9 µM
same,CC50,[8],> 25 µM
O=C(Nc1ccc(N2CCN(C(=O)c3ccccc3Cl)CC2)cc1)c1ccc(OCc2ccccc2)cc1 [NA-50],EC50,[1]; [11],~2.5 µM
same,CC50,[7],13.1 µM
same,CC50,[4]; Mouse Reporter Cell Line,> 25 µM
Cc1ccc(C(=O)Nc2cc(-c3nc4cc(C(C)C)ccc4o3)ccc2C)cc1C [ND-103],EC50,[2]; [9],9.17 µM
same,EC50,[5]; Human Reporter Cell Line THP1,25 µM
COc1ccc(C(=O)Nc2ccc(N3CCN(C(=O)c4cccs4)CC3)cc2)c2ccccc12 [NA-15],EC50,[1]; [11],5.89 µM
same,EC50,[2]; [10],1.63 µM
same,CC50,[3]; Human Reporter Cell Line,> 25 µM
same,CC50,[4]; Mouse Reporter Cell Line,> 25 µM
